These results are taken from patent US20130324541A1, “POTENTIATOR OF ANTITUMOR ACTIVITY OF CHEMOTHERAPEUTIC AGENT” (Ajinomoto Co., Inc., priority 2011, published 2013).

Experiment [1] concerns MKN45 cells (human gastric cancer cell line). Briefly: WST-8 viable cell assay, 5FU and BCAA, MKN45 cells. The format is cell-based. Particulars: 72 hr, BCAA 2 mM or 4 mM, 5FU 0.05-1 μg/ml. The method, then: MKN45 cells (human gastric cancer cell line) were plated in a 96 well plate at a concentration of 4000 cells/100 μl/well, and cultured under the following conditions for 72 hr: • LC medium (10% FBS) • LC medium +BCAA (2 mM or 4 mM) • LC medium +5FU (0.05 μg/ml, 0.1 μg/ml, 0.5 μg/ml or 1 μg/ml) • LC medium +BCAA (2 mM or 4 mM) +5FU (0.05 μg/ml, 0.1 μg/ml, 0.5 μg/ml or 1 μg/ml)
After 72 hr, WST-8 reagent was added (10 μl/well) and, after color development for 1 hr, the absorbance of OD 450 nm was measured. The absorbance of each group was shown by a is relative value provided that the absorbance of a non-stimulation group was assumed to be 1000. WST-8 is reduced by intracellular dehydrogenase to produce water-soluble formazan. By directly measuring the absorbance of formazan at 450 nm, the number of viable cells can be easily measured. The cell number and the amount of produced formazan are in a linear proportional correlation.

Experiment [2] has as its system HCT116 cells (human colorectal cancer cell line). Briefly: Annexin V apoptosis, combined use of 5FU and BCAA, HCT116 cells. Format: cell-based. The note with it: 72 hr, BCAA 2 mM, 5FU 2 μg/ml. The method, then:
HCT116 cells (human colorectal cancer cell line) were plated at a concentration of 4000 cells/well in a plate, and cultured under the following conditions for 72 hr: • LC 2.5% medium • BCAA (2 mM) • 5FU (2 μg/ml) • BCAA (2 mM)+5FU (2 μg/ml)
(§1) After 72 hr, using ApoAlert Annexin V-FITC Apoptosis kit (Clontech), the cells were stained with annexin V and fixed, and apoptotic cells (%) were detected by Array Scan (Thermo Fisher).

The subject of experiment [3] is human breast cancer cell line MDA-MB231. Briefly: Growth of MDA-MB231 cells (cell number, Hoechst staining). Format: cell-based. Particulars: 5 days, 5-FU 0.25 μg/ml, BCAA 4 mM. The method, then:
MDA-MB231 cells were suspended in RPMI-10% (RPMI medium containing 10% FBS), and plated in a plate at 2000 cells/well. The next day, the medium was exchanged to those shown below, and the cells were further cultured for 5 days. • group 1: RPMI-10% • group 2: RPMI-10% containing BCAA (4 mM) • group 3: RPMI-10% containing 5-FU (0.25 μg/m1) • group 4: RPMI-10% containing 5-FU (0.25 μg/ml) +BCAA (4 mM)
After 5 days, cellular nucleus was stained with Hoechst reagent, and the cell number was counted. In groups 1 and 2, cells were stained with anti-CD44 antibody, and the ratio of CD44 positive cells was analyzed by Array Scan using fluorescence microscopic quantification apparatus (Thermo Fisher).

The next experiment deals with HAK1B cells. Briefly: HAK1B subcutaneous transplant in nude mice, tumor weight and volume. Format: in vivo, BALB/c nude mice. Particulars: 5FU 250 μg/tumor into the tumor, 3(w/w)% BCAA mixed feed for 2 weeks, vs control group. The method, then:
HAK1B cells were subcutaneously transplanted to 7-week-old female BALB/c nude mice (purchased from Japan Charles River) at 7,000,000 cells/mouse. After 1 week, the mice were grouped based on the tumor area. 5FU 250 μg/tumor (vehicle 10% DMSO/DW) was administered into the tumor (see Cancer Research, 70(11), 4687-4697, 2010), as well as a 3(w/w) % BCAA mixed feed or a 3(w/w) % casein mixed feed was given for 2 weeks. That is, treatments of 4 groups are as described below: • group 1: vehicle+casein mixed feed (control group) • group 2: 5FU+casein mixed feed • group 3: vehicle+BCAA mixed feed • group 4: 5FU+BCAA mixed feed
Using a vernier caliper, the tumor volume (longest Diameter×shortest diameter×height (mm^3)) was measured from the outer side of the tumor to monitor time-course changes in the tumor volume. On day 43, autopsy was performed, and the weight and volume of the tumor were measured.

Experiment [4] relates to human hepatic cancer cell line HAK4. Briefly: Annexin V apoptosis, combined use of 5FU and BCAA, HAK4 cells. Format: cell-based. Particulars: 72 hr, BCAA 2 mM, 5FU 2.5 μg/ml. Here is the method:
Human hepatic cancer cell line HAK4 cells were plated at a concentration of 3000 cells/well in a plate, and cultured 30 under the following conditions for 72 hr: • LC 2.5% medium • BCAA (2 mM) • 5FU (2.5 μg/ml) • BCAA (2 mM)+5FU (2.5 μg/ml)
as §1
To be specific, the cells in the 96 well plate were rinsed with 1×Binding Buffer, 40 μl of 1×Binding Buffer containing annexin V (1 μl) was added to each well, and the cells were incubated in the dark at room temperature for 5-15 min. The cells were washed, and fixed with 2% formaldehyde. 100 μl of PBS containing Hoechst33258 solution was added, and the cells were incubated in the dark for 5 min, and apoptotic cells (%) were detected by Array Scan.

With `O=c1[nH]cc(F)c(=O)[nH]1` [5FU, 5-fluorouracil], in experiment [1], the “number of viable cells (WST-8, OD 450 nm)” value is on record as “decreased”. In addition, the “apoptotic cells (Annexin V positive cells)” value in experiment [2] and in experiment [4] was “increased” throughout. Besides, in experiment [3], the “number of viable cells (cell number)” value is recorded as “decreased”. Also, the tumor volume result in the experiment on HAK1B cells was “significantly decreased”. Besides, the tumor weight result with HAK1B cells is given as “significantly decreased”.
